In patent US20120295920A1, “5-AMINO-4-HYDROXYPENTOYL AMIDES” (priority 2009, published 2012):
Where two headings read alike, the source gives them in different places.

Key:
[1] = system: HIV-1 IIIB; test: 50% HS-Rezazurin: antiviral assay in the presence of 50% human serum, MT-4 cells, resazurin cell viability; format: cell-based
Summary of the method: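 MT-4 cells infected with HIV-1 IIIB (MOI 0.001 to 0.01 CCID50/cell) for 1 h, washed, then plated onto serial compound dilutions in 50% human serum (10% FCS alternative). After 4 days, EC50 derived from resazurin cell viability.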

[2] = system: HIV-1 Strain B (M046I, I050V); test: microbe, parasite or virus in culture; format: cell-based; conditions: clinical isolate Strain B; read-out: B EC50
Summary of the method: (§1)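 MT4 cells stably carrying an HIV LTR-driven EGFP reporter (150,000 cells/ml) were infected at MOI 0.0025 with or without inhibitor dilutions. Replication was read either as GFP fluorescence on day 3 post-infection or as cell viability by resazurin on day 4.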

[3] = system: HIV-1 Strain C (G048G/V, V082A); test: microbe, parasite or virus in culture; format: cell-based; conditions: clinical isolate Strain C; read-out: C EC50
Summary of the method: as §1

[4] = system: HIV-1 Strain A (M046I, I084V); test: microbe, parasite or virus in culture; format: cell-based; conditions: clinical isolate Strain A; read-out: A EC50
Summary of the method: as §1

[5] = system: HIV-1 wild-type strain; test: General antiviral assay, cell-based virus replication in MT4-LTR-EGFP cells, wild-type strain; conditions: wild-type strain IIIB, MT4-LTR-EGFP cells
Summary of the method: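 HIV LTR-driven EGFP reporter MT4 cells (150,000 cells/ml) infected at MOI 0.0025 with or without inhibitor at various concentrations. Read-out either GFP fluorescence on day 3 post-infection or resazurin cell viability on day 4.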

[6] = system: mock-infected MT4 cells; test: General toxicity assay on mock-infected MT4 cells with CMV-EGFP reporter (CC50); format: cell-based
[7] = mock-infected MT4 cells with CMV-EGFP reporter, read-out: TOX-MT4CMV (CC50)
[8] = MT4LTR cells, read-out: TOX-MT4LTR (CC50)

SMILES | EC50 [1] | EC50 [2] | EC50 [3] | EC50 [4] | EC50 [5] | CC50 [6, 7] | CC50 [6, 8]
CCc1ncc(-c2ccc(CC(NC(=O)C(NC(=O)OC)C(C)(C)C)C(O)CC(Cc3ccccc3F)C(=O)NC3c4cc(Cl)ccc4OCC3O)cc2)s1 (stereo not shown) [Compound 14] | 24.6 nM | 2.1 nM | 1.3 nM | 3.5 nM | 3 nM | > 32000 nM | –
COC(=O)N[C@H](C(=O)N[C@@H](Cc1ccc(-c2ccc(N(C)C)nc2)cc1)[C@@H](O)C[C@@H](Cc1ccccc1F)C(=O)N[C@H]1[C@H](C)CC[C@H]1O)C(C)(C)C [Compound 87] | 14.4 nM | 1.9 nM | 5.4 nM | 8 nM | 4.7 nM | > 32000 nM | –
COc1ccc(-c2ccc(C[C@H](NC(=O)O[C@H]3CO[C@H]4OCC[C@H]43)[C@@H](O)C[C@@H](Cc3ccccc3F)C(=O)N[C@H]3c4cc(Cl)ccc4OC[C@H]3O)cc2)cn1 [Compound 72] | 5.8 nM | 0.8 nM | 0.5 nM | 0.8 nM | 1.5 nM | – | > 32000 nM
COC(=O)N[C@H](C(=O)N[C@@H](Cc1ccc(-c2ccc(N(C)C)nc2)cc1)[C@@H](O)C[C@@H](Cc1ccccc1F)C(=O)N[C@H]1c2ccc(Cl)cc2OC[C@H]1O)C(C)(C)C [Compound 86] | 17.1 nM | 1.4 nM | 1.3 nM | 7.5 nM | 2.6 nM | – | > 32000 nM
COC(=O)N[C@H](C(=O)N[C@@H](Cc1ccc(-c2ccc(OC)nc2)cc1)[C@@H](O)C[C@@H](Cc1ccccc1Cl)C(=O)N[C@H]1[C@H](C)CCC[C@H]1O)C(C)(C)C [Compound 91] | 3.2 nM | 0.7 nM | 1 nM | 2.6 nM | 1.1 nM | 17000 nM | 16000 nM
COC(=O)NC(C(=O)NC(Cc1ccc(-c2ccc(OC)nc2)cc1)C(O)CC(Cc1ccccc1F)C(=O)NC1CCCCC1O)C(C)(C)C (stereo not shown) [Compound 100] | 5.9 nM | 0.7 nM | 0.8 nM | 1.8 nM | 1.8 nM | – | > 32000 nM
COC(=O)NC(C(=O)NC(Cc1ccc(-c2ccc(N(C)C)nc2)cc1)C(O)CC(Cc1cccc(Cl)c1)C(=O)NC1c2ccccc2OCC1O)C(C)(C)C (stereo not shown) [Compound 2] | 19.7 nM | 2.2 nM | 1.1 nM | 3.3 nM | 3 nM | > 32000 nM | –
COC(=O)NC(C(=O)NC(Cc1ccc(-c2ccc(OC)nc2)cc1)C(O)CC(Cc1cccc(OC)c1)C(=O)NC1c2ccccc2OCC1O)C(C)(C)C (stereo not shown) [Compound 17] | 6.4 nM | 1.2 nM | 1.1 nM | 2 nM | 1.9 nM | > 32000 nM | –
CN(C)c1ccc(-c2ccc(C[C@H](NC(=O)O[C@H]3CO[C@H]4OCC[C@H]43)[C@@H](O)C[C@@H](Cc3ccccc3F)C(=O)N[C@H]3c4cc(F)ccc4OC[C@H]3O)cc2)cn1 [Compound 68] | 9.4 nM | 1.5 nM | 1.3 nM | 2.2 nM | 3 nM | > 32000 nM | –
COC(=O)NC(C(=O)NC(Cc1ccc(-c2ccc(OC)nc2)cc1)C(O)CC(Cc1ccccc1F)C(=O)NC1c2ccccc2OCC1O)C(C)(C)C (stereo not shown) [Compound 16] | 6.6 nM | 1.3 nM | 1.1 nM | 2 nM | 2.5 nM | > 32000 nM | –
COC(=O)N[C@H](C(=O)N[C@@H](Cc1ccc(-c2cccc(OC)n2)cc1)[C@@H](O)C[C@@H](Cc1ccccc1F)C(=O)N[C@H]1c2cc(Cl)ccc2OC[C@H]1O)C(C)(C)C [Compound 30] | 17.4 nM | 2.8 nM | 2.5 nM | 5.9 nM | 4 nM | > 32000 nM | –
COc1ccc(-c2ccc(C[C@H](NC(=O)O[C@H]3CO[C@H]4OCC[C@H]43)[C@@H](O)C[C@@H](Cc3ccccc3Cl)C(=O)N[C@H]3c4cc(Cl)ccc4OC[C@H]3O)cc2)cn1 [Compound 78] | 10.6 nM | 1.4 nM | 0.9 nM | 1.9 nM | 2.1 nM | – | > 32000 nM
COC(=O)NC(C(=O)NC(Cc1ccc(-c2ccc(OC)nc2)cc1)C(O)CC(Cc1ccccc1F)C(=O)NC1c2cc(F)cc(C)c2OCC1O)C(C)(C)C (stereo not shown) [Compound 102] | 6.8 nM | 3.3 nM | 1.5 nM | 5.4 nM | 2.3 nM | – | > 32000 nM
COC(=O)N[C@H](C(=O)N[C@@H](Cc1ccc(-c2ccc(N(C)C)nc2)cc1)[C@@H](O)C[C@@H](Cc1cccc(F)c1)C(=O)N[C@H]1c2ccccc2OC[C@H]1O)C(C)(C)C [Compound 36] | 14.3 nM | 1.4 nM | 1.3 nM | 2.4 nM | 2.9 nM | > 32000 nM | > 32000 nM
COC(=O)N[C@H](C(=O)N[C@@H](Cc1ccc(-c2ccc(N(C)C)nc2)cc1)[C@@H](O)C[C@@H](Cc1ccccc1F)C(=O)N[C@H]1c2cccc(F)c2OC[C@H]1O)C(C)(C)C [Compound 51] | 7 nM | 1.5 nM | 1.3 nM | 2.3 nM | 3 nM | – | > 32000 nM
COC(=O)N[C@H](C(=O)N[C@@H](Cc1ccc(-c2ccc(OC)nc2)cc1)[C@@H](O)C[C@@H](Cc1ccccc1F)C(=O)N[C@H]1c2cccc(F)c2OC[C@H]1O)C(C)(C)C [Compound 50] | 6.9 nM | 1.4 nM | 1.1 nM | 2 nM | 2.8 nM | – | > 32000 nM
Cc1cc(-c2ccc(C[C@H](NC(=O)O[C@H]3CO[C@H]4OCC[C@H]43)[C@@H](O)C[C@@H](Cc3ccccc3F)C(=O)N[C@H]3c4cc(Cl)ccc4OC[C@H]3O)cc2)cc(C)n1 [Compound 76] | 20.5 nM | 1.5 nM | 1.1 nM | 1.7 nM | 2.9 nM | – | > 32000 nM
COc1cccc(C[C@H](C[C@H](O)[C@H](Cc2ccc(-c3csc(N(C)C)n3)cc2)NC(=O)O[C@H]2CO[C@H]3OCC[C@H]32)C(=O)N[C@H]2c3cc(Cl)ccc3OC[C@H]2O)c1 [Compound 71] | 10.9 nM | 2.3 nM | 1 nM | 2.2 nM | 2.1 nM | > 32000 nM | > 32000 nM
COC(=O)NC(C(=O)NC(Cc1ccc(-c2cnc(OC)cn2)cc1)C(O)CC(Cc1ccccc1F)C(=O)NC1c2cc(Cl)ccc2OCC1O)C(C)(C)C (stereo not shown) [Compound 23] | 12.3 nM | 2.4 nM | 2 nM | 3.7 nM | 3 nM | 19000 nM | –
COC(=O)N[C@H](C(=O)N[C@@H](Cc1ccc(-c2cnc(OC)nc2)cc1)[C@@H](O)C[C@@H](Cc1ccccc1F)C(=O)N[C@H]1c2cc(Cl)ccc2OC[C@H]1O)C(C)(C)C [Compound 48] | 7.5 nM | 2.2 nM | 1.3 nM | 2.6 nM | 3.8 nM | – | > 32000 nM
COC(=O)NC(C(=O)NC(Cc1ccc(-c2ccc(N(C)C)nc2)cc1)C(O)CC(Cc1ccccc1F)C(=O)NC1c2ccccc2OCC1O)C(C)(C)C (stereo not shown) [Compound 7] | 10.4 nM | 0.9 nM | 0.8 nM | 1.5 nM | 1.6 nM | > 32000 nM | > 49000 nM
